Test results: patent US20240425500A1 (priority 2021, published 2024)

Legend:
[1] = system: Pythium ultimum; assay: Pythium ultimum / liquid culture (seedling damping off); format: cell-based; conditions: Globisporangium ultimum, liquid culture in PDB, 24 °C, 2-3 days after application, read-out: control of Pythium ultimum (inhibition of growth, photometric) compared to untreated control
In short: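 Mycelia fragments and oospores from fresh liquid culture mixed into potato dextrose broth and added to compound in DMSO. Incubated at 24° C.; growth inhibition read photometrically 2–3 days after application.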

[2] = system: Plasmopara viticola; assay: whole plant or invertebrate; format: in vivo; conditions: foliar, read-out: control of Plasmopara viticola compared to untreated control
[3] = system: Phytophthora infestans; assay: whole plant or invertebrate; format: in vivo; conditions: in Solanum lycopersicum, foliar, read-out: control of Phytophthora infestans compared to untreated control

COC(=O)Nc1ccc(-c2cnc3c(NC(C)=O)cc(C(=O)N(C)c4ccc(F)cc4)cn23)cn1 [Compound 100, methyl N-[5-[8-acetamido-6-[(4-fluorophenyl)-methyl-carbamoyl]imidazo[1,2-a]pyridin-3-yl]-2-pyridyl]carbamate]
≥ 80%: inhibition at 20 ppm [1] | pest or weed control at 200 ppm [2] | pest or weed control at 200 ppm [3]

COC(=O)Nc1ccc(-c2cnc3ccc(C(=O)N(C)c4ccc(F)c(OC)c4)cn23)cc1 [Compound 158, methyl N-[4-[6-[(4-fluoro-3-methoxy-phenyl)-methyl-carbamoyl]imidazo[1,2-a]pyridin-3-yl]phenyl]carbamate]
≥ 80%: inhibition at 20 ppm [1] | pest or weed control at 200 ppm [2] | pest or weed control at 200 ppm [3]

COC(=O)Nc1ccc(-c2cnc3ccc(C(=O)N(C)c4ccc(Cl)c(C)c4)cn23)cn1 [Compound 46, methyl N-[5-[6-[(4-chloro-3-methyl-phenyl)-methyl-carbamoyl]imidazo[1,2-a]pyridin-3-yl]-2-pyridyl]carbamate]
≥ 80%: inhibition at 20 ppm [1] | pest or weed control at 200 ppm [2] | pest or weed control at 200 ppm [3]

COC(=O)Nc1ccc(-c2cnc3cc(C)c(C(=O)N(C)c4ccc(F)cc4)cn23)cn1 [Compound 86, methyl N-[5-[6-[(4-fluorophenyl)-methyl-carbamoyl]-7-methyl-imidazo[1,2-a]pyridin-3-yl]-2-pyridyl]carbamate]
≥ 80%: inhibition at 20 ppm [1] | pest or weed control at 200 ppm [2] | pest or weed control at 200 ppm [3]

COC(=O)Nc1ccc(-c2cnc3ccc(C(=O)N(CC#N)c4ccc(F)c(OC)c4)cn23)cn1 [Compound 89, methyl N-[5-[6-[cyanomethyl-(4-fluoro-3-methoxy-phenyl)carbamoyl]imidazo [1,2-a]pyridin-3-yl]-2-pyridyl]carbamate]
≥ 80%: inhibition at 20 ppm [1] | pest or weed control at 200 ppm [2] | pest or weed control at 200 ppm [3]

CCN(C(=O)c1ccc2ncc(-c3ccc(NC(=O)OC)nc3)n2c1)c1cccc(OC)c1 [Compound 124, methyl N-[5-[6-[ethyl-(3-methoxyphenyl)carbamoyl]imidazo[1,2-a]pyridin-3-yl]-2-pyridyl]carbamate]
≥ 80%: inhibition at 20 ppm [1] | pest or weed control at 200 ppm [2] | pest or weed control at 200 ppm [3]

COC(=O)Nc1ccc(-c2cnc3ccc(C(=O)N(C)c4ccc(F)c(C)c4)cn23)cn1 [Compound 48, methyl N-[5-[6-[(4-fluoro-3-methyl-phenyl)-methyl-carbamoyl]imidazo[1,2-a]pyridin-3-yl]-2-pyridyl]carbamate]
≥ 80%: inhibition at 20 ppm [1] | pest or weed control at 200 ppm [2] | pest or weed control at 200 ppm [3]

COC(=O)Nc1ccc(-c2cnc3ccc(C(=O)N(C)c4ccc(Cl)c(OC)c4)cn23)cn1 [Compound 75, methyl N-[5-[6-[(4-chloro-3-methoxy-phenyl)-methyl-carbamoyl]imidazo[1,2-a]pyridin-3-yl]-2-pyridyl]carbamate]
≥ 80%: inhibition at 20 ppm [1] | pest or weed control at 200 ppm [2] | pest or weed control at 200 ppm [3]

COC(=O)Nc1ccc(-c2cnc3c(OC)cc(C(=O)N(C)c4ccc(F)cc4)cn23)cn1 [Compound 84, methyl N-[5-[6-[(4-fluorophenyl)-methyl-carbamoyl]-8-methoxy-imidazo[1,2-a]pyridin-3-yl]-2-pyridyl]carbamate]
≥ 80%: inhibition at 20 ppm [1] | pest or weed control at 200 ppm [2] | pest or weed control at 200 ppm [3]

CCN(C(=O)c1ccc2ncc(-c3ccc(NC(=O)OC)nc3)n2c1)c1ccc(F)c(OC)c1 [Compound 178, methyl N-[5-[6-[ethyl-(4-fluoro-3-methoxy-phenyl)carbamoyl]imidazo [1,2-a]pyridin-3-yl]-2-pyridyl]carbamate]
≥ 80%: inhibition at 20 ppm [1] | pest or weed control at 200 ppm [2] | pest or weed control at 200 ppm [3]

CCc1cc(C(=O)N(C)c2ccc(F)cc2)cn2c(-c3ccc(NC(=O)OC)nc3)cnc12 [Compound 170, methyl N-[5-[8-ethyl-6-[(4-fluorophenyl)-methyl-carbamoyl]imidazo[1,2-a]pyridin-3-yl]-2-pyridyl]carbamate]
≥ 80%: inhibition at 20 ppm [1] | pest or weed control at 200 ppm [2] | pest or weed control at 200 ppm [3]

CCN(C(=O)c1ccc2ncc(-c3ccc(NC(=O)OC)nc3)n2c1)c1ccc(F)cc1 [Compound 136, methyl N-[5-[6-[ethyl-(4-fluorophenyl)carbamoyl]imidazo[1,2-a]pyridin-3-yl]-2-pyridyl]carbamate]
≥ 80%: inhibition at 20 ppm [1] | pest or weed control at 200 ppm [2] | pest or weed control at 200 ppm [3]

COC(=O)Nc1ccc(-c2cnc3ccc(C(=O)N(C)c4cccc(I)c4)cn23)cn1 [Compound 73, methyl N-[5-[6-[(3-iodophenyl)-methyl-carbamoyl]imidazo[1,2-a]pyridin-3-yl]-2-pyridyl]carbamate]
≥ 80%: inhibition at 20 ppm [1] | pest or weed control at 200 ppm [2] | pest or weed control at 200 ppm [3]

COC(=O)Nc1ccc(-c2cnc3ccc(C(=O)N(C)c4ccnc(OC)c4)cn23)cn1 [Compound 70, methyl N-[5-[6-[(2-methoxy-4-pyridyl)-methyl-carbamoyl]imidazo[1,2-a]pyridin-3-yl]-2-pyridyl]carbamate]
≥ 80%: inhibition at 20 ppm [1] | pest or weed control at 200 ppm [2] | pest or weed control at 200 ppm [3]

COCCN(C(=O)c1ccc2ncc(-c3ccc(NC(=O)OC)nc3)n2c1)c1ccc(F)c(OC)c1 [Compound 173, methyl N-[5-[6-[(4-fluoro-3-methoxy-phenyl)-(2-methoxyethyl)carbamoyl]imidazo[1,2-a]pyridin-3-yl]-2-pyridyl]carbamate]
≥ 80%: inhibition at 20 ppm [1] | pest or weed control at 200 ppm [2] | pest or weed control at 200 ppm [3]

COCCN(C(=O)c1ccc2ncc(-c3ccc(NC(=O)OC)nc3)n2c1)c1ccc(F)cc1 [Compound 76, methyl N-[5-[6-[(4-fluorophenyl)-(2-methoxyethyl)carbamoyl]imidazo[1,2-a]pyridin-3-yl]-2-pyridyl]carbamate]
≥ 80%: inhibition at 20 ppm [1] | pest or weed control at 200 ppm [2] | pest or weed control at 200 ppm [3]

COC(=O)Nc1ccc(-c2cnc3ccc(C(=O)N(C)c4ccc(C#N)c(C)c4)cn23)cn1 [Compound 53, methyl N-[5-[6-[(4-cyano-3-methyl-phenyl)-methyl-carbamoyl]imidazo[1,2-a]pyridin-3-yl]-2-pyridyl]carbamate]
≥ 80%: inhibition at 20 ppm [1] | pest or weed control at 200 ppm [2] | pest or weed control at 200 ppm [3]

COC(=O)Nc1ccc(-c2cnc3c(C)cc(C(=O)N(C)c4ccc(F)c(OC)c4)cn23)cn1 [Compound 95, methyl N-[5-[6-[(4-fluoro-3-methoxy-phenyl)-methyl-carbamoyl]-8-methyl-imidazo[1,2-a]pyridin-3-yl]-2-pyridyl]carbamate]
≥ 80%: inhibition at 20 ppm [1] | pest or weed control at 200 ppm [2] | pest or weed control at 200 ppm [3]

COC(=O)Nc1ccc(-c2cnc3ccc(C(=O)N(C)c4ccc(C#N)cc4)cn23)cn1 [Compound 15, methyl N-[5-[6-[(4-cyanophenyl)-methyl-carbamoyl]imidazo[1,2-a]pyridin-3-yl]-2-pyridyl]carbamate]
≥ 80%: inhibition at 20 ppm [1] | pest or weed control at 200 ppm [2] | pest or weed control at 200 ppm [3]

COC(=O)Nc1ccc(-c2cnc3c(C)cc(C(=O)N(C)c4ccc(F)cc4)cn23)cn1 [Compound 82, methyl N-[5-[6-[(4-fluorophenyl)-methyl-carbamoyl]-8-methyl-imidazo[1,2-a]pyridin-3-yl]-2-pyridyl]carbamate]
≥ 80%: inhibition at 20 ppm [1] | pest or weed control at 200 ppm [2] | pest or weed control at 200 ppm [3]

COC(=O)Nc1ccc(-c2cnc3ccc(C(=O)N(C)c4cccc(OC)c4)cn23)cn1 [Compound 63, methyl N-[5-[6-[(3-methoxyphenyl)-methyl-carbamoyl]imidazo[1,2-a]pyridin-3-yl]-2-pyridyl]carbamate]
≥ 80%: inhibition at 20 ppm [1] | pest or weed control at 200 ppm [2] | pest or weed control at 200 ppm [3]

COC(=O)Nc1ccc(-c2cnc3ccc(C(=O)N(C)c4ccc(F)cc4)cn23)cn1 [Compound 25, methyl N-[5-[6-[(4-fluorophenyl)-methyl-carbamoyl]imidazo[1,2-a]pyridin-3-yl]-2-pyridyl]carbamate]
≥ 80%: inhibition at 20 ppm [1] | pest or weed control at 200 ppm [2] | pest or weed control at 200 ppm [3]

COC(=O)Nc1ccc(-c2cnc3ccc(C(=O)N(C)c4cccc(OC)c4)cn23)cc1 [Compound 7, methyl N-[4-[6-[(3-methoxyphenyl)-methyl-carbamoyl]imidazo[1,2-a]pyridin-3-yl]phenyl]carbamate]
≥ 80%: inhibition at 20 ppm [1] | pest or weed control at 200 ppm [2] | pest or weed control at 200 ppm [3]

COC(=O)Nc1ccc(-c2cnc3ccc(C(=O)N(c4ccc(Cl)cc4)C4CC4)cn23)cc1 [Compound 27, methyl N-[4-[6-[(4-chlorophenyl)-cyclopropyl-carbamoyl]imidazo[1,2-a]pyridin-3-yl]phenyl]carbamate]
≥ 80%: inhibition at 20 ppm [1] | pest or weed control at 200 ppm [2] | pest or weed control at 200 ppm [3]
